Reference: ChEMBL document CHEMBL1944551, “An integrated computational workflow for efficient and quantitative modeling of renin inhibitors” (Bioorg Med Chem, 2012)

Assays:
Renin = target: T1, Renin (Homo sapiens, UniProt P00797)
T1 sequence (P00797 whole entry): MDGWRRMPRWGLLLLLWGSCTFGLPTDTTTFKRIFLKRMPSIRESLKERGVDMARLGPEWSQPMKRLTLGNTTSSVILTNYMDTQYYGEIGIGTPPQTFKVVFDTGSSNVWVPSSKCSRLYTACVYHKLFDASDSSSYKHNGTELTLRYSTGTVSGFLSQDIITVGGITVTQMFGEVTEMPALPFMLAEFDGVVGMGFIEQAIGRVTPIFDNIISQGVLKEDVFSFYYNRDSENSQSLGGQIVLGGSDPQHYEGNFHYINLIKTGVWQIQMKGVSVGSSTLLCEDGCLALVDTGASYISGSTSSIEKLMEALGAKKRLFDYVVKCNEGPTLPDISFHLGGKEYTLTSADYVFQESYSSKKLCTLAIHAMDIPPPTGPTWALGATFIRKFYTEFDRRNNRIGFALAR
Description: Inhibition of human recombinant renin assessed as decrease in release of AngI from tetradecapeptide after 3 hrs by EIA

physchem = settings: octanol/buffer

Row | IC50 (Renin) [nM] | logP (physchem) | Structure (SMILES)
1 | 427 | 7.78 | Cc1c(F)cccc1Cc1cc2c(cc1O)c(C(=O)N1CCNCC1)c(Cc1cccc(F)c1C)n2-c1ccccc1
2 | 15.8 | 5.45 | Cc1ccc(F)cc1Oc1c(C(=O)N2CCNCC2)c2ccc(O)cc2n1-c1ccc(F)cc1
3 | 7.76 | 5.54 | Cc1cc(Cl)c(OCCOc2ccc(N3C(=O)CNC[C@@H]3C(=O)N(Cc3cccc(C)c3C)C3CC3)cc2)cc1C
4 | 10.2 | 5.69 | Cc1cccc(CN(C(=O)[C@H]2CNCC(=O)N2c2ccc(OCCOc3c(Cl)cc(F)cc3Cl)cc2)C2CC2)c1C
5 | 537 | 5.71 | O=C(c1c(Oc2ccccc2)n(-c2ccccc2)c2cc(Cl)ccc12)N1CCNCC1
6 |  | 3.76 | Cc1cc(Cl)c(OCCOc2ccc(N3C(=O)CNC[C@@H]3C(=O)N(C)Cc3ccccc3)cn2)c(Cl)c1
7 |  | 5.39 | COc1cccc(CN(C(=O)[C@H]2CNCC(=O)N2c2ccc(CCCOc3c(F)ccc(F)c3F)cc2)C2CC2)c1C
8 |  | 5.29 | COCCCc1cc(CN(C(=O)[C@H]2CNCC(=O)N2c2ccc(CCCOc3cccc(Cl)c3)cc2)C2CC2)c(Cl)cn1
9 |  | 3.21 | CCNCc1ccc(Cl)c(CN(C(=O)[C@H]2CNCC(=O)N2c2cnc(OCCCOCc3ccccc3OC)nc2)C2CC2)c1
10 |  | 5.73 | O=C([C@H]1CNCC(=O)N1c1ccc(CCCOc2c(F)ccc(F)c2F)cc1)N(Cc1ccccc1Cl)C1CC1
11 |  | 4.53 | CNC(=O)Cc1ccc(Cl)c(CN(C(=O)[C@H]2CNCC(=O)N2c2ccc(OCCCOCc3ccccc3)cc2)C2CC2)c1
12 |  | 4.75 | COC(=O)NCc1ccc(Cl)c(CN(C(=O)[C@H]2CNCC(=O)N2c2ccc(OCCOc3c(Cl)cc(C)cc3Cl)nc2)C2CC2)c1
13 |  | 5.33 | COCCCc1cc(CN(C(=O)[C@H]2CNCC(=O)N2c2ccc(CCCOc3c(F)ccc(F)c3F)cc2)C2CC2)c(Cl)c[n+]1[O-]
14 |  | 5.67 | COC(=O)NCCc1ccc(Cl)c(CN(C(=O)[C@H]2CNCC(=O)N2c2ccc(OCCOc3c(Cl)cc(C)cc3Cl)cc2)C2CC2)c1
15 |  | 4.95 | COCCc1ccc(Cl)c(CN(C(=O)[C@H]2CNCC(=O)N2c2ccc(COC(=O)c3ccccc3)cc2)C2CC2)c1
16 |  | 4.61 | COCCCc1cc(CN(C(=O)[C@H]2CNCC(=O)N2c2ccc(OCCOc3c(Cl)cc(C)cc3Cl)nc2)C2CC2)c(Cl)c[n+]1[O-]
17 |  | 5.04 | Cc1cc(Cl)c(OCCOc2ccc(N3C(=O)CNC[C@@H]3C(=O)N(Cc3cccc(Cl)c3)C3CC3)cn2)c(Cl)c1
18 |  | 4.47 | CC(=O)NCc1ccc(Cl)c(CN(C(=O)[C@H]2CNCC(=O)N2c2ccc(OCCOc3c(Cl)cc(C)cc3Cl)nc2)C2CC2)c1
19 |  | 5.56 | Cc1cc(Cl)c(OCCOc2ccc(N3C(=O)CNC[C@@H]3C(=O)N(Cc3cc(CCNC4CC4)ccc3Cl)C3CC3)cn2)c(Cl)c1
20 |  | 4.66 | COc1cccc(CN(C(=O)[C@H]2CNCC(=O)N2c2ccc(OCCOc3c(Cl)cc(C)cc3Cl)nc2)C2CC2)c1C
21 |  | 6.09 | O=C(CC(F)(F)F)NCc1ccc(Cl)c(CN(C(=O)[C@H]2CNCC(=O)N2c2ccc(CCCOc3cccc(Cl)c3)cc2)C2CC2)c1
22 |  | 4.75 | CN(CCc1ccccc1)C(=O)[C@H]1CNCC(=O)N1c1ccc(CCCOc2cccc(Cl)c2)cc1
23 |  | 5.84 | CCC(=O)NCc1ccc(Cl)c(CN(C(=O)[C@H]2CNCC(=O)N2c2ccc(CCCOc3cccc(Cl)c3)cc2)C2CC2)c1
24 |  | 5.91 | O=C([C@H]1CNCC(=O)N1c1ccc(CCCOc2cccc(Cl)c2)cc1)N(Cc1ccc(Cl)cc1)C1CC1
25 |  | 4.66 | CC(=O)NCCc1ccc(Cl)c(CN(C(=O)[C@H]2CNCC(=O)N2c2ccc(OCCCOCc3ccccc3)cc2)C2CC2)c1
26 |  | 5.22 | COCCc1ccc(Cl)c(CN(C(=O)[C@H]2CNCC(=O)N2c2ccc(OCCOc3c(Cl)cc(C)cc3Cl)nc2)C2CC2)c1
27 |  | 2.81 | CCNC(=O)Cc1ccc(Cl)c(CN(C(=O)[C@H]2CNCC(=O)N2c2cnc(OCCCOCc3ccccc3OC)nc2)C2CC2)c1

Row | Structure (SMILES) | IC50 (Renin) [nM] | logP (physchem)
28 | Cc1ccc(F)cc1Oc1c(C(=O)N2CCNCC2)c2ccccc2n1[C@H]1C=CCCC1 | 6.46 | 5.3
